Laboratory results: patent US8822449B2, “Substituted aminoindanes and analogs thereof, and the pharmaceutical use thereof” (Sanofi, priority 2008, dated 2014)

Molecular target: T1, sodium-proton exchanger of subtype 3 (NHE3) (Homo sapiens, UniProt P48764)
T1 construct: expressed in transfected cells
T1 sequence (P48764 26-834): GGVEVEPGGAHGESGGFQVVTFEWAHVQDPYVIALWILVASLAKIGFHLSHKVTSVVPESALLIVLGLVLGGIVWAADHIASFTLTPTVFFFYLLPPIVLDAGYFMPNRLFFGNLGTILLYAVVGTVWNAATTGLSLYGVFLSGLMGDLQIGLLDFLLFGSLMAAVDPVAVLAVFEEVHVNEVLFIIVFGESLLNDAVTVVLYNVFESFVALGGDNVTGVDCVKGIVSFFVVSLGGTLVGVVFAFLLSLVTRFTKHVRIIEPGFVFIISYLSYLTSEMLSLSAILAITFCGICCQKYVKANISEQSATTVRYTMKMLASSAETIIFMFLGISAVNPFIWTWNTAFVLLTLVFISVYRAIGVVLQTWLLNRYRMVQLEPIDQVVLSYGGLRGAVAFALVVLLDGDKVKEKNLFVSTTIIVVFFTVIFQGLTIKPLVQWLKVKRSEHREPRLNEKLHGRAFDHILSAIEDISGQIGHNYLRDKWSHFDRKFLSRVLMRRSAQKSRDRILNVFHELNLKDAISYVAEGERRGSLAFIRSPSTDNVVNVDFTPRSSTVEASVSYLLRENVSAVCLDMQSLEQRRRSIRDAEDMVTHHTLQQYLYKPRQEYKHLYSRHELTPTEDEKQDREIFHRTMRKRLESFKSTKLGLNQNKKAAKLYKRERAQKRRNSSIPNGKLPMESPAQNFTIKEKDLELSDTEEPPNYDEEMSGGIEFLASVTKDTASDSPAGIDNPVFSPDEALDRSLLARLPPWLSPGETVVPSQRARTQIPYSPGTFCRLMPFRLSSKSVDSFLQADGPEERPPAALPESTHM
Test: Recovery of intracellular pH (pHi) after acidification in LAP1 cells stably expressing NHE3 (BCECF fluorescence, FLIPR)
Type: cell-based
Settings: LAP1 cells stably expressing NHE3; pH recovery after acidification; range 1 is % inhibition at 10 μM; read-out: Activity range (inhibitory effect on NHE3)

inhibition at 10 µM [%] | IC50 [nM] | Structure (SMILES)
20 to 50 |  | N#Cc1ccc(-c2ccc(O[C@H]3c4ccccc4CC[C@@H]3N3CCC[C@@H](N)C3)cc2)cc1 (racemic) [Example 517, 4′-[rac-trans-(1,2)-2-((R)-3-aminopiperidin-1-yl)-1,2,3,4-tetrahydronaphthalen-1-yloxy]-biphenyl-4-carbonitrile]
20 to 50 |  | N[C@H]1CCCN([C@H]2CCc3ccccc3[C@@H]2Oc2ccc(N3C(=O)CCC3=O)cc2)C1 (racemic) [Example 328, 1-{4-[rac-trans-(1,2)-2-((S)-3-aminopiperidin-1-yl)-1,2,3,4-tetrahydronaphthalen-1-yloxy]phenyl}pyrrolidine-2,5-dione]
20 to 50 |  | Fc1ccc(O[C@H]2c3cc(Cl)cc(Cl)c3C[C@@H]2N2CCCC2)c2ncccc12 [Example 593, 8-((1S,2S)-4,6-dichloro-2-pyrrolidin-1-ylindan-1-yloxy)-5-fluoroquinoline]
20 to 50 |  | N[C@H]1CCCN([C@H]2CCc3ccccc3[C@@H]2Oc2ccc(NC(=O)OCc3ccccc3)cc2)C1 (racemic) [Example 239, {4-[rac-trans-(1,2)-2-((S)-3-aminopiperidin-1-yl)-1,2,3,4-tetrahydronaphthalen-1-yloxy]phenyl}carbamic acid benzyl ester]
20 to 50 |  | Cc1cc(C)c2cccnc2c1O[C@H]1c2ccccc2CC[C@@H]1N1CCOCC1 (racemic) [Example 573, 5,7-dimethyl-8-(rac-trans-(1,2)-2-morpholin-4-yl-1,2,3,4-tetrahydronaphthalen-1-yloxy)quinoline]
 | < 1000 | N#Cc1ccc(O[C@H]2c3ccccc3CC[C@@H]2N2CCC[C@@H](N)C2)cc1F (racemic) [Example 510, 4-[rac-trans-(1,2)-2-((R)-3-aminopiperidin-1-yl)-1,2,3,4-tetrahydronaphthalen-1-yloxy]-2-fluorobenzonitrile]
 | < 1000 | N[C@@H]1CCCN([C@H]2Cc3c(Cl)cc(Cl)cc3[C@@H]2Oc2ccc(F)cc2-c2cc[nH]n2)C1 [Example 113, (R)-1-{(1S,2S)-4,6-dichloro-1-[4-fluoro-2-(1H-pyrazol-3-yl)phenoxy]indan-2-yl}piperidin-3-ylamine]
 | 1000 to 10000 | COc1cc(Cl)cc(O[C@H]2c3ccccc3CC[C@@H]2N2CCC[C@H](N)C2)c1 (racemic) [Example 163, (S)-1-[rac-trans-(1,2)-1-(3-chloro-5-methoxyphenoxy)-1,2,3,4-tetrahydronaphthalen-2-yl]piperidin-3-ylamine]
 | 1000 to 10000 | N#Cc1c(F)cccc1O[C@@H]1c2ccccc2C[C@H]1N1CCC(CN)C1 (mixture of isomers) [Example 374, 2-[rac-trans-(1,2)-2-(3-aminomethylpyrrolidin-1-yl)indan-1-yloxy]-6-fluorobenzonitrile]
 | < 1000 | NS(=O)(=O)c1ccc(O[C@H]2c3cc(Cl)cc(Cl)c3C[C@@H]2N2CCS(=O)(=O)CC2)cc1 [Example 483, 4-[(1S,2S)-4,6-dichloro-2-(1,1-dioxo-1lambda6-thiomorpholin-4-yl)indan-1-yloxy]benzenesulfonamide]
 | 1000 to 10000 | COc1cc(Cl)cc(O[C@@H]2c3ccccc3C[C@H]2N2CCC(CN)C2)c1 (mixture of isomers) [Example 613, C-{1-[rac-trans-(1,2)-1-(3-chloro-5-methoxyphenoxy)indan-2-yl]pyrrolidin-3-yl}methylamine]
 | 1000 to 10000 | CC1(C)NC(=O)N(c2ccc(Cl)c(O[C@H]3c4cc(Cl)cc(Cl)c4C[C@@H]3N3CC[C@@H](O)C3)c2)C1=O [Example 431, 3-{4-chloro-3-[(1S,2S)-4,6-dichloro-2-((R)-3-hydroxypyrrolidin-1-yl)indan-1-yloxy]phenyl}-5,5-dimethylimidazolidine-2,4-dione]
 | 1000 to 10000 | NC1CCN([C@@H]2Cc3ccccc3[C@H]2Oc2ccnc3ccccc23)C1 (mixture of isomers) [Example 275, 1-[rac-trans-(1,2)-1-(quinolin-4-yloxy)indan-2-yl]pyrrolidin-3-ylamine]
 | 1000 to 10000 | CCN(CC)[C@@H]1Cc2ccccc2[C@H]1Oc1ccc(CCOC)cc1 (racemic) [Example 628, Diethyl-{rac-trans-(1,2)-1-[4-(2-methoxyethyl)phenoxy]indan-2-yl}amine]
20 to 50 |  | Cc1ccc(O[C@H]2c3ccccc3CC[C@@H]2N2CCC[C@H](N)C2)c(Br)c1 (racemic) [Example 150, (S)-1-[rac-trans-(1,2)-1-(2-bromo-4-methylphenoxy)-1,2,3,4-tetrahydronaphthalen-2-yl]piperidin-3-ylamine]
 | 1000 to 10000 | Cc1ccc2c(c1)C(Oc1ccc(S(N)(=O)=O)cc1)C(N1CCCC1)C2 (racemic) [Example 475, 4-(rac-trans-(1,2)-6-methyl-2-pyrrolidin-1-ylindan-1-yloxy)benzenesulfonamide]
 | 1000 to 10000 | N[C@H]1CCCN([C@@H]2Cc3ccccc3[C@H]2Oc2ccc(S(N)(=O)=O)c(Cl)c2Cl)C1 (racemic) [Example 536, 4-[rac-trans-(1,2)-2-((S)-3-aminopiperidin-1-yl)indan-1-yloxy]-2,3-dichlorobenzenesulfonamide]
 | 1000 to 10000 | CS(=O)(=O)c1ccccc1O[C@H]1c2cc(Cl)cc(Cl)c2C[C@@H]1N1CCNCC1 [Example 246, 1-[(1S,2S)-4,6-dichloro-1-(2-methanesulfonylphenoxy)indan-2-yl]piperazine]
 | < 1000 | Cc1nnc(C)n1-c1ccc(O[C@H]2c3cc(Cl)ccc3C[C@@H]2N2CC[C@@H](O)C2)c(Cl)c1 [Example 139, (R)-1-{trans-(1S,2S)-6-chloro-1-[2-chloro-4-(3,5-dimethyl-[1,2,4]triazol-4-yl)phenoxy]indan-2-yl}pyrrolidin-3-ol]
20 to 50 |  | CS(=O)(=O)c1ccc(O[C@H]2c3ccccc3C[C@@H]2N2CCCC(NCC(F)(F)F)C2)cc1 (stereo partly drawn) [Example 219, {(R)-1-[trans-(1S,2S)-1-(4-methanesulfonylphenoxy)indan-2-yl]piperidin-3-yl}-(2,2,2-trifluoroethyl)amine]
 | 1000 to 10000 | CC(=O)Nc1cccc(O[C@@H]2c3ccccc3C[C@H]2N2CCC(N)C2)c1 (mixture of isomers) [Example 687, N-{3-[rac-trans-(1,2)-2-(3-aminopyrrolidin-1-yl)indan-1-yloxy]phenyl}acetamide]
20 to 50 |  | N#Cc1cc(Cl)ccc1O[C@H]1c2ccccc2CC[C@@H]1N1CCOCC1 (racemic) [Example 585, 5-chloro-2-(rac-trans-(1,2)-2-morpholin-4-yl-1,2,3,4-tetrahydronaphthalen-1-yloxy)benzonitrile]
 | 1000 to 10000 | Cc1nnc(C)n1-c1ccc(F)c(O[C@H]2c3cc(Cl)cc(Cl)c3C[C@@H]2N2CC[C@@H](O)C2)c1 [Example 114, (R)-1-{(1S,2S)-4,6-dichloro-1-[5-(3,5-dimethyl-[1,2,4]triazol-4-yl)-2-fluorophenoxy]indan-2-yl}pyrrolidin-3-ol]
 | < 1000 | Cc1nnc(C)n1-c1ccc(O[C@H]2c3cc(Cl)ccc3C[C@@H]2N2CC[C@@H](F)C2)c(F)c1 [Example 563, 4-{4-[trans-(1S,2S)-6-chloro-2-((R)-3-fluoropyrrolidin-1-yl)indan-1-yloxy]-3-fluorophenyl}-3,5-dimethyl-4H-[1,2,4]triazole]
 | 1000 to 10000 | CS(=O)(=O)c1cc(Cl)c(O[C@H]2c3ccccc3C[C@@H]2N2CCCC2)c(Cl)c1 (racemic) [Example 264, 1-[rac-trans-(1,2)-1-(2,6-dichloro-4-methanesulfonylphenoxy)indan-2-yl]pyrrolidine]
 | < 1000 | CS(=O)(=O)c1ccc(O[C@H]2c3ccccc3C[C@@H]2N2CCC[C@@H](N)C2)cc1 [Example 95, (R)-1-[trans-(1S,2S)-1-(4-methanesulfonylphenoxy)indan-2-yl]piperidin-3-ylamine]
 | 1000 to 10000 | CCc1ccc(O[C@@H]2c3ccccc3C[C@H]2N2CCC(N)C2)c(C(C)(C)C)c1 (mixture of isomers) [Example 267, 1-[rac-trans-(1,2)-1-(2-tert-butyl-4-ethylphenoxy)indan-2-yl]pyrrolidin-3-ylamine]
 | 1000 to 10000 | CC(=O)Nc1cccc(O[C@@H]2c3cc(Cl)cc(F)c3C[C@H]2N2CCCC2)c1 (racemic) [Example 660, N-[3-(rac-trans-(1,2)-6-chloro-4-fluoro-2-pyrrolidin-1-ylindan-1-yloxy)phenyl]acetamide]
 | 1000 to 10000 | CCc1nc(C)cn1-c1ccc(O[C@H]2c3cc(Cl)cc(F)c3C[C@@H]2N2CC[C@@H](O)C2)cc1 [Example 719, (R)-1-{trans-(1S,2S)-6-Chloro-1-[4-(2-ethyl-4-methyl-imidazol-1-yl)-phenoxy]-4-fluoro-indan-2-yl}-pyrrolidin-3-ol]
 | 1000 to 10000 | NS(=O)(=O)c1ccc(O[C@H]2c3cc(F)ccc3C[C@@H]2N2CCCC2)cc1 (racemic) [Example 474, 4-(rac-trans-(1,2)-6-fluoro-2-pyrrolidin-1-ylindan-1-yloxy)benzenesulfonamide]
